Results from ChEMBL document CHEMBL3885861, “Open TG-GATES”.

Organism: Rattus norvegicus
Assay: Open TG-GATES - Regimen: Single
Assay type: toxicity, organism-based, Sprague-Dawley
Design: regimen Single, gender Male, age 6 weeks
Settings: in vivo, po, 8 mg/kg, route gavage, dose level Low; for APTT / Bas / Eos / Fbg / Hb / Ht / Lym / MCH / MCHC / MCV / Mono / Neu / PT / Plat / RBC / Ret / WBC: tissue Blood; for KIDNEY_L / KIDNEY_R / KIDNEY_TOTAL: tissue Kidney; for LIVER: tissue Liver; for A/G / ALP / ALT / AST / BUN / CRE / Ca / Cl / DBIL / GLC / IP / K / LDH / Na / PL / RALB / TBIL / TC / TG / TP / gamma-GTP: tissue Plasma

## NC1=NC(=O)C(c2ccccc2)O1 (configuration not stated) [PEMOLINE]
3 h
  TERMINAL_BW: 210.1 g
  APTT: 15.6 s
  Bas: 0%
  Eos: 0.6%
  Fbg: 289.6 mg/dL
  Hb: 13.2 g/dL
  Ht: 38.9%
  Lym: 79.4%
  MCH: 21.9 pg
  MCHC: 34.1%
  MCV: 64.2 fL
  Mono: 3.2%
  Neu: 16.2%
  PT: 13.2 s
  Plat: 112.1 x10_4/uL
  RBC: 605.6 x10_4/ul
  Ret: 9.3%
  WBC: 89 x10_2/uL
  KIDNEY_L: 0.9 g
  KIDNEY_R: 0.9 g
  KIDNEY_TOTAL: 1.8 g
  LIVER: 9 g
  A/G: 1
  ALP: 1585.2 IU/L
  ALT: 44 IU/L
  AST: 83 IU/L
  BUN: 8.2 mg/dL
  CRE: 0.2 mg/dL
  Ca: 10.7 mg/dL
  Cl: 106.2 meq/L
  DBIL: 0.014 mg/dL
  GLC: 174.2 mg/dL
  IP: 7.9 mg/dL
  K: 4.1 meq/L
  LDH: 68.8 IU/L
  Na: 139.6 meq/L
  PL: 126.6 mg/dL
  RALB: 2.7 g/dL
  TBIL: 0.042 mg/dL
  TC: 77 mg/dL
  TG: 45.8 mg/dL
  TP: 5.3 g/dL
  gamma-GTP: 1.4 IU/L
6 h
  TERMINAL_BW: 211.2 g
  APTT: 15.8 s
  Bas: 0%
  Eos: 1%
  Fbg: 309 mg/dL
  Hb: 13.5 g/dL
  Ht: 39.8%
  Lym: 75.6%
  MCH: 21.9 pg
  MCHC: 33.9%
  MCV: 64.6 fL
  Mono: 3.4%
  Neu: 19.6%
  PT: 13.1 s
  Plat: 112.7 x10_4/uL
  RBC: 616.4 x10_4/ul
  Ret: 8.9%
  WBC: 81.1 x10_2/uL
  KIDNEY_L: 0.9 g
  KIDNEY_R: 0.9 g
  KIDNEY_TOTAL: 1.8 g
  LIVER: 8.7 g
  A/G: 1
  ALP: 1539 IU/L
  ALT: 44 IU/L
  AST: 80 IU/L
  BUN: 8 mg/dL
  CRE: 0.2 mg/dL
  Ca: 10.7 mg/dL
  Cl: 104.8 meq/L
  DBIL: 0.014 mg/dL
  GLC: 186.2 mg/dL
  IP: 9.9 mg/dL
  K: 3.9 meq/L
  LDH: 56.8 IU/L
  Na: 140.6 meq/L
  PL: 127 mg/dL
  RALB: 2.8 g/dL
  TBIL: 0.042 mg/dL
  TC: 78.4 mg/dL
  TG: 37.4 mg/dL
  TP: 5.5 g/dL
  gamma-GTP: 1.4 IU/L
9 h
  TERMINAL_BW: 209.7 g
  APTT: 15.9 s
  Bas: 0%
  Eos: 1%
  Fbg: 319.2 mg/dL
  Hb: 13.3 g/dL
  Ht: 39.2%
  Lym: 77.8%
  MCH: 21.9 pg
  MCHC: 34%
  MCV: 64.2 fL
  Mono: 2.8%
  Neu: 18%
  PT: 13.2 s
  Plat: 117.5 x10_4/uL
  RBC: 611 x10_4/ul
  Ret: 9.2%
  WBC: 91 x10_2/uL
  KIDNEY_L: 0.9 g
  KIDNEY_R: 0.9 g
  KIDNEY_TOTAL: 1.8 g
  LIVER: 7.7 g
  A/G: 1
  ALP: 1372.4 IU/L
  ALT: 40.6 IU/L
  AST: 74.2 IU/L
  BUN: 8.2 mg/dL
  CRE: 0.2 mg/dL
  Ca: 10.4 mg/dL
  Cl: 106 meq/L
  DBIL: 0.012 mg/dL
  GLC: 172.2 mg/dL
  IP: 9.7 mg/dL
  K: 3.9 meq/L
  LDH: 57.4 IU/L
  Na: 140.4 meq/L
  PL: 122.4 mg/dL
  RALB: 2.7 g/dL
  TBIL: 0.044 mg/dL
  TC: 78.4 mg/dL
  TG: 28.4 mg/dL
  TP: 5.3 g/dL
  gamma-GTP: 1.4 IU/L
24 h
  TERMINAL_BW: 216.4 g
  APTT: 16.8 s
  Bas: 0%
  Eos: 0.8%
  Fbg: 274.6 mg/dL
  Hb: 13 g/dL
  Ht: 38.4%
  Lym: 77.8%
  MCH: 22.1 pg
  MCHC: 33.9%
  MCV: 65.2 fL
  Mono: 3.4%
  Neu: 17.4%
  PT: 12.9 s
  Plat: 118.4 x10_4/uL
  RBC: 590.2 x10_4/ul
  Ret: 8.1%
  WBC: 88.3 x10_2/uL
  KIDNEY_L: 0.9 g
  KIDNEY_R: 0.9 g
  KIDNEY_TOTAL: 1.9 g
  LIVER: 10 g
  A/G: 1
  ALP: 1622.2 IU/L
  ALT: 43 IU/L
  AST: 70.2 IU/L
  BUN: 15.2 mg/dL
  CRE: 0.2 mg/dL
  Ca: 11 mg/dL
  Cl: 105 meq/L
  DBIL: 0.018 mg/dL
  GLC: 177.8 mg/dL
  IP: 8.2 mg/dL
  K: 3.9 meq/L
  LDH: 61.8 IU/L
  Na: 142.2 meq/L
  PL: 133.8 mg/dL
  RALB: 2.8 g/dL
  TBIL: 0.03 mg/dL
  TC: 76 mg/dL
  TG: 69.4 mg/dL
  TP: 5.6 g/dL
  gamma-GTP: 1 IU/L
